Target: T1, CIC-1 channels (Rattus norvegicus, UniProt P35524)
T1 construct: from tissue; host or cells: whole soleus muscle of 12-14 week old Wistar rats
T1 sequence (P35524 1-994): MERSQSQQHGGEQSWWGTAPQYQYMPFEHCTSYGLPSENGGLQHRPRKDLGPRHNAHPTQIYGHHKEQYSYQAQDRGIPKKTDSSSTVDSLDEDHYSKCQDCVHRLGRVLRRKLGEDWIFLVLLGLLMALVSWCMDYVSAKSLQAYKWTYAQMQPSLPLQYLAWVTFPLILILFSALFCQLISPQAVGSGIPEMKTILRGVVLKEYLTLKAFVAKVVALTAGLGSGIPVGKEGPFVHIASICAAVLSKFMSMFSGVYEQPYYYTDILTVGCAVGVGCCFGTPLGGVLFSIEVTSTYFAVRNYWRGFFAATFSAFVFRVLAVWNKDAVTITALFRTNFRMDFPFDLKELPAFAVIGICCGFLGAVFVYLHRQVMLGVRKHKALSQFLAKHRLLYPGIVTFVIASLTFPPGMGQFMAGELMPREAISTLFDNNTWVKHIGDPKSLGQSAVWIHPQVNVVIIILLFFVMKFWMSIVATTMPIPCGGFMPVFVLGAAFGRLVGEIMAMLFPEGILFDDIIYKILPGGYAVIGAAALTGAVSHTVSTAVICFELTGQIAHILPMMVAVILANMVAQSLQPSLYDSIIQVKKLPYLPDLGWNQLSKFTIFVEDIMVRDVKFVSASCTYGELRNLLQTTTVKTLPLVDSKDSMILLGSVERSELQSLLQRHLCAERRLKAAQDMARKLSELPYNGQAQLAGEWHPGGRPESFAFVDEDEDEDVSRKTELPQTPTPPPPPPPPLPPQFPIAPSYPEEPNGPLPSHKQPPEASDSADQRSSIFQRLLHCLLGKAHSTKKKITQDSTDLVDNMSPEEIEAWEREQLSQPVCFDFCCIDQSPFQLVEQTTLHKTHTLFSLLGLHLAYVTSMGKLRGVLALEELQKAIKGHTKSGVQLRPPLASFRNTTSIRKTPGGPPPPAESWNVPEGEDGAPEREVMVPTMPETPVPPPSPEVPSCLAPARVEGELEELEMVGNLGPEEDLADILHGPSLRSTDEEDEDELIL
Assay: Electrophysiological measurement of compound inhibition of CIC-1 in rat muscle (Gm, three micro-electrode technique, soleus muscle fibres)
Type: cell-based
Conditions: reduction of Gm in rat soleus muscle fibres, approx. 30°C; mean ± spread, n = number of experiments
Description: Table 2: Inhibition of CIC-1 ion channel using compounds of the invention

An EC50 of 3.5 ± 0.6 µM was found for `C#Cc1cc(Br)ccc1O[C@@H](C)C(=O)O` [Compound A-19, (2S)-2-(4-bromo-2-ethynylphenoxy)propanoic acid] in this work.

— EP3723746B1, “PHENOXY ACIDS FOR THE TREATMENT OF NEUROMUSCULAR DISORDERS” (NMD Pharma A/S, priority 2017, dated 2019)
